Experimental data from ChEMBL document CHEMBL1135308, “Non-peptide alpha(v)beta(3) antagonists. Part 4: potent and orally bioavailable chain-shortened RGD mimetics” (Bioorg Med Chem Lett, 2002).

Columns and labels:
Integrin alpha-V/beta-3 = Integrin alpha-V/beta-3 (Homo sapiens, UniProt P05106+P06756); assay: Inhibition of binding to human alpha V beta3; format: protein-complex assay
[1] = Oral bioavailability in dog (1 mg/kg p.o. and 0.2 mg/kg i.v.); format: ADME, organism-based, Canis lupus familiaris; settings: in vivo
[2] = Compound was tested for plasma half life when administered in dog perorally (1 mg/kg) and intravenously (0.2 mg/kg); format: ADME, organism-based, Canis lupus familiaris
[3] = Partition coefficient (logP); format: physicochemical; settings: octanol/water
[4] = Compound was tested for its ability of plasma clearance when administered in dog perorally (1 mg/kg) and intravenously (0.2 mg/kg); format: ADME, organism-based, Canis lupus familiaris; settings: iv
Homo sapiens = species: Homo sapiens; assay: Inhibitory concentration required for 50% inhibition of the rate of ADP-stimulated platelet aggregation; format: functional, organism-based

Sequence of Integrin alpha-V/beta-3 (P05106 27-788 limits assumed): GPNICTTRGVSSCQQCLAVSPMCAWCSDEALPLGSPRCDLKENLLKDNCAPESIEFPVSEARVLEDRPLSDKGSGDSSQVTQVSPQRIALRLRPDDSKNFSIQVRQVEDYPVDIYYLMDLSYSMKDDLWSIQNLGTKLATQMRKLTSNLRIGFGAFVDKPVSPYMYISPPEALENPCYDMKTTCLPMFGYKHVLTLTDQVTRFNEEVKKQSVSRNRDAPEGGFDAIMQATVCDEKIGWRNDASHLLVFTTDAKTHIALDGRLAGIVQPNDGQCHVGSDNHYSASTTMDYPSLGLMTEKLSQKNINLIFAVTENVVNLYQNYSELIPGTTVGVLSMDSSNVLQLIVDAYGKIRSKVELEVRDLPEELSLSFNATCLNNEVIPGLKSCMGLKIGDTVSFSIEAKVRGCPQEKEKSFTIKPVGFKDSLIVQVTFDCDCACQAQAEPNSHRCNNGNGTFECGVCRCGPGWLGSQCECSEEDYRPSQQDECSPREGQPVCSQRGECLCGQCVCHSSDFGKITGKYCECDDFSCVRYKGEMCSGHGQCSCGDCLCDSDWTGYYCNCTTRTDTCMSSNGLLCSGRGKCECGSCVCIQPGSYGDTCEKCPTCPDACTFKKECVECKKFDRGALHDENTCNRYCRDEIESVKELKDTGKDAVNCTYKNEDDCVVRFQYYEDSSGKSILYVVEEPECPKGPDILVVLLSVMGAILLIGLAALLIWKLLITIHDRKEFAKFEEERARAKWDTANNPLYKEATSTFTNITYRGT
Sequence of Integrin alpha-V/beta-3 (P06756 31-889 limits assumed): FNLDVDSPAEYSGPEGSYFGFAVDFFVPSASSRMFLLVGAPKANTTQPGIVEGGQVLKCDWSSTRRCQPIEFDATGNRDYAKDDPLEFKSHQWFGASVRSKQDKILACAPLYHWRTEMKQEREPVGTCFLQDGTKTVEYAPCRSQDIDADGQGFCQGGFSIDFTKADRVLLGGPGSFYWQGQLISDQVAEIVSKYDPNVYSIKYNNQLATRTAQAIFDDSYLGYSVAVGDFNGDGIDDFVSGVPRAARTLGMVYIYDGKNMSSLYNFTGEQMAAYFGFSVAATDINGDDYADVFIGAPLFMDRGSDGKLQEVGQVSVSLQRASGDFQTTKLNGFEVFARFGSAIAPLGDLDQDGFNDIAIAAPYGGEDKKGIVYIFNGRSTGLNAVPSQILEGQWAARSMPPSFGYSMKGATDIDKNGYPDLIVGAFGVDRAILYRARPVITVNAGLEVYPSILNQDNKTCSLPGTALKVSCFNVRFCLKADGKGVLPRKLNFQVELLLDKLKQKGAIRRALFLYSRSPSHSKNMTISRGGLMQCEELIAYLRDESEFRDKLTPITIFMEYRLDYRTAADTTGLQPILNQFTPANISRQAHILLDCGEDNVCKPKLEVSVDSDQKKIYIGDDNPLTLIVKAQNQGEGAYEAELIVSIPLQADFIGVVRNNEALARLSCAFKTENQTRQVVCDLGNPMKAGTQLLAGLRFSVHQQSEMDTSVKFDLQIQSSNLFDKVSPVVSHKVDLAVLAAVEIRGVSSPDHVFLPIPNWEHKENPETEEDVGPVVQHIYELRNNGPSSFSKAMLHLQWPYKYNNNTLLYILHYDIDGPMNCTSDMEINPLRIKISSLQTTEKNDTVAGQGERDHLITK
Sequence of Integrin alpha-V/beta-3 (P06756 891-1048 limits assumed): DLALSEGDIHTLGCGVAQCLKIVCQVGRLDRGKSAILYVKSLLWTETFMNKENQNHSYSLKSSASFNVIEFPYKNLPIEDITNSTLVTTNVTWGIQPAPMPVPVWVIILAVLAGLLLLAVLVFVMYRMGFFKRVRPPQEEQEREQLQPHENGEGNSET

O=C(O)CCNC(=O)CNC(=O)CCCc1ccc2c(n1)NCCC2
IC50 (Integrin alpha-V/beta-3): 48 nM

O=C(O)C[C@H](NC(=O)CCCCCCc1ccc2c(n1)NCCC2)c1cnc2ccccc2c1
IC50 (Integrin alpha-V/beta-3): 5.8 nM

O=C(O)CCNC(=O)CCCCc1ccc2c(n1)NCCC2
IC50 (Integrin alpha-V/beta-3): 500 nM

O=C(O)C[C@H](NC(=O)CCCCCc1ccc2c(n1)NCCC2)c1cnc2ccccc2c1
IC50 (Integrin alpha-V/beta-3): 5.9 nM

O=C(O)C[C@H](NC(=O)CCCCc1ccc2c(n1)NCCC2)c1cccc(F)c1
bioavailability [1]: 81%
half-life [2]: 5.5 h
logP [3]: 0.29
IC50 (Integrin alpha-V/beta-3): 23 nM
clearance [4]: 2 mL/min/kg
IC50 (Homo sapiens): > 10000 nM

O=C(O)C[C@H](NC(=O)CCCCc1ccc2c(n1)NCCC2)c1ccc2c(c1)OCO2
bioavailability [1]: 94%
half-life [2]: 2.4 h
logP [3]: 0.47
IC50 (Integrin alpha-V/beta-3): 1.5 nM
clearance [4]: 1.2 mL/min/kg
IC50 (Homo sapiens): > 10000 nM

O=C(O)C[C@H](NC(=O)CCCCc1ccc2c(n1)NCCC2)c1cncnc1
bioavailability [1]: 10%
half-life [2]: 2.4 h
logP [3]: -1.21
IC50 (Integrin alpha-V/beta-3): 3.3 nM
clearance [4]: 26 mL/min/kg
IC50 (Homo sapiens): > 10000 nM

O=C(O)C[C@H](NC(=O)CCCCc1ccc2c(n1)NCCC2)c1cnc2ccccc2c1
bioavailability [1]: 65%
half-life [2]: 2.4 h
logP [3]: 0.76
IC50 (Integrin alpha-V/beta-3): 1.6 nM
clearance [4]: 5.8 mL/min/kg
IC50 (Homo sapiens): 4440 nM

O=C(O)C[C@H](NC(=O)CNC(=O)CCCc1ccc2c(n1)NCCC2)c1cnc2ccccc2c1
IC50 (Integrin alpha-V/beta-3): 0.67 nM

O=C(O)C[C@H](NC(=O)CCCCc1ccc2c(n1)NCCC2)c1ccc2c(c1)OCC2
bioavailability [1]: 99%
half-life [2]: 2.5 h
logP [3]: 0.53
IC50 (Integrin alpha-V/beta-3): 3 nM
clearance [4]: 1.2 mL/min/kg
IC50 (Homo sapiens): > 10000 nM

O=C(O)C[C@H](NC(=O)CCCCc1ccc2c(n1)NCCC2)c1ccc2nc(O)oc2c1
bioavailability [1]: 25%
half-life [2]: 1.2 h
logP [3]: -0.24
IC50 (Integrin alpha-V/beta-3): 13.1 nM
clearance [4]: 37 mL/min/kg
IC50 (Homo sapiens): > 10000 nM
